# Results as given in ChEMBL document CHEMBL4028866 (J Med Chem, 2017).
# Tests used:
# Rattus norvegicus = organism: Rattus norvegicus; conditions: in vivo, po
# in vivo [1] = conditions: Sprague-Dawley, rat, iv, 1 mg/mg
# in vivo [2] = conditions: Sprague-Dawley, rat, po, 10 mg/mg
# in vivo [3] = conditions: Sprague-Dawley, rat, iv, 1 mg/mg; remark: listed apart in the source
# in vivo [4] = conditions: Sprague-Dawley, rat, po, 10 mg/mg; remark: listed apart in the source
# in vivo [5] = conditions: Sprague-Dawley, rat, iv, 1 mg/mg; remark: listed apart in the source
# in vivo [6] = conditions: Sprague-Dawley, rat, po, 10 mg/mg; remark: listed apart in the source
# in vivo [7] = conditions: Sprague-Dawley, rat, iv, 1 mg/mg; remark: listed apart in the source
# in vivo [8] = conditions: Sprague-Dawley, rat, po, 10 mg/mg; remark: listed apart in the source
# in vivo [9] = conditions: Sprague-Dawley, rat, iv, 1 mg/mg; remark: listed apart in the source
# in vivo [10] = conditions: Sprague-Dawley, rat, po, 10 mg/mg; remark: listed apart in the source
# in vivo [11] = conditions: Sprague-Dawley, rat, iv, 1 mg/mg; remark: listed apart in the source
# in vivo [12] = conditions: Sprague-Dawley, rat, po, 10 mg/mg; remark: listed apart in the source
# in vivo [13] = conditions: Sprague-Dawley, rat, iv, 1 mg/mg; remark: listed apart in the source
# in vivo [14] = conditions: Sprague-Dawley, rat, po, 10 mg/mg; remark: listed apart in the source
# in vivo [15] = conditions: Sprague-Dawley, rat, po, 10 mg/mg; remark: listed apart in the source
# in vivo [16] = conditions: Sprague-Dawley, rat, iv, 1 mg/mg; remark: listed apart in the source
Vz (Rattus norvegicus) [L/kg],AUC(0-t) (in vivo [1]) [ng·h/mL],AUC(0-t) (in vivo [2]) [ng·h/mL],AUC(0-inf) (in vivo [3]) [ng·h/mL],AUC(0-inf) (in vivo [4]) [ng·h/mL],Cmax (in vivo [5]) [ng/mL],Cmax (in vivo [6]) [ng/mL],Tmax (in vivo [7]) [min],Tmax (in vivo [8]) [h],half-life (in vivo [9]) [h],half-life (in vivo [10]) [h],clearance (in vivo [11]) [mL/min/kg],CL/F (in vivo [12]) [mL/min/kg],MRT inf (in vivo [13]) [h],MRT inf (in vivo [14]) [h],bioavailability (in vivo [15]) [%],Vd (in vivo [16]) [L/kg],SMILES
0.06082,520,978,525,991,839,83.5,1.02,6.66,3.34,3.61,0.0345,0.193,3.13,7.22,18.8,–,CC(C)(C)c1cc(NC(=O)Nc2ccc(-n3nc(-c4ccc(OCCN5CCOCC5)cc4)c4c(N)ncnc43)cc2)no1
4.078,1930,14500,1970,15000,728,1140,1.8,8,4.38,3.73,9.35,12.6,5.83,10.1,75.9,3.53,CC(C)(C)c1cc(NC(=O)Nc2ccc(-c3cn4c(n3)sc3cc(OCCN5CCOCC5)ccc34)cc2)no1 [QUIZARTINIB]
